What all share (format): cell-based
Assay [1] concerns the target T1, hVR1 (Homo sapiens, UniProt Q8NER1).
T1 construct: R710-07 (T-REx host cell line); host or cells: T-REx System cell line, called 'human keratinocyte cell line' and 'HEK 293 cells'
Description: Determination of pA2 values against capsaicin stimulation (Ca2+ imaging, Schild analysis). How it is done:
Changes in the fluorescence signal (λex=470-495 nm, λem=515-575 nm) are monitored throughout the experiment before agonist addition and for at least 2 min after agonist addition (enough time for the fluorescence response to reach and then decline from the absolute maximum, agonist-induced signal attained). For each well, final relative fluorescence units (RFUs) are calculated as the difference between the maximum fluorescence signal obtained in the experiment after agonist addition and the signal level seen at baseline before agonist, but after antagonist, addition (the absolute minimum level of fluorescence signal observed in the 10 seconds prior to agonist addition). […] Data are fit to an ideal curve utilizing the 4-parameter sigmoid curve-fit function in GraphPad Prism software (version 4, GraphPad Software, Inc., San Diego, Calif., USA) from which an EC50 value is obtained. […] For each antagonist, at least three concentrations are tested. Dose Ratio values are then used to make a standard Schild plot—log [antagonist concentration] plotted against log [DR−1], see Kenakin reference above for theoretical background and method. A linear regression curve-fit is then performed on these plotted points. […] If these conditions are not met, then the antagonist is rerun in a pA2 assay using different antagonist concentrations until the above conditions are met.

Assay [2] addresses T1, hVR1. Description: Calcium uptake assay (FLIPR), inhibition of capsaicin-induced calcium influx. Here is the method:
(§1) Functional activity of compounds against the VR1 receptor was determined by measuring changes in intracellular calcium in HEK 293 cells expressing hVR1. Compounds were examined for their ability to inhibit agonist-induced calcium influx. Relative levels of [Ca^2+] were monitored in a 96-well format using a calcium-sensitive fluorescence dye and a FLIPR TETRA, Molecular Devices.
(§2) Cells that express high levels of VR1 were obtained by generation of a cell line from human keratinocytes with heterologous expression of VR1 under control of an inducible promoter. Specifically, cells expressing human VR1 under the control of the human cytomegalovirus immediate-early (CMV) promoter and two tetracycline operator 2 (TetO2) sites were made using the T-REx System (Invitrogen, Carlsbad, Calif., USA). Details and methods concerning this system are published (Hum. Gene Ther. 9, pp. 1939-1950, 1998; Annu. Rev. Microbiol. 48, pp. 345-369, 1994; Mol. Biol. 169, pp. 707-'721, 1983). Human VR1 was subcloned into the T-REx System pcDNA5/TO vector (Invitrogen Cat# V1033-20) which was transfected into the T-REx System human keratinocyte cell line (Invitrogen Cat# R710-07) from which a stable cell line was established which expresses VR1 after induction by exposure to tetracycline or doxycycline (Hum. Gene Ther. 9, pp. 1939-1950, 1998; instructions that come with purchase of products noted above). Cells were maintained in a CO2 incubator (5% CO2) at 37° C. in culture medium containing DMEM with phenol red (Mediatech Cat #: 15-017-CV) supplemented with 10% heat-inactivated Fetal Bovine Serum, 5% Penicillin-streptomycin (Mediatech Cat #: 30-002-CI), 5% Glutamax® (L-Alanyl-L-Glutamine, Mediatech Cat #: 25-015-CI), 200 μg/ml hygromycin (Mediatech #:30-240-CR), 0.5 μg/ml blasticidin (Invitrogen #46-1120)).
(§3) For assay preparation, cells expressing human VR1 as described above were plated in 96-well plates (Becton Dickinson [BD] poly-D-lysine coated 96-well plates, cat #356692) at 55,000 cells per well in culture media (described above) that also contained 1 ug/ml doxycycline. Plated cells were then placed in an incubator (5% CO2) and incubated for 20-26 hours at 37° C., until the cells had grown to near confluency. Media was then aspirated from cells and 50 uL of dye-containing buffer (from Molecular Devices FLIPR Calcium 4 Assay kit, cat# R8141) was added to each well. Cells were then left in the dark at room temperature for 1.5-2 hours. Cell plates were then placed in the FLIPR TETRA (Molecular Devices, CA, USA). Test compounds and agonists were added to wells using the liquid handling capability of the FLIPR TETRA. Calcium responses of the cells were monitored by fluorescence readout of dye signal. Test compounds in saline (130 mM NaCl, 17 g/L sucrose, 1.8 g/L glucose, 8.8 mM HEPES, 3 mM KCl, 0.60 mM MgCl, 1.0 mM CaCl2; adjust to pH 7.4 using NaOH; 0.03% BSA added on the day of the experiment), or vehicle control in saline, were pre-incubated at the desired final concentrations in the dark at room temperature for 2 or 30 minutes with cells already containing the above mentioned dye buffer (dye solution was diluted 1:1 in culture wells with saline containing 2× the final concentration of test compound). […] Another agonist was protons via a low pH solution (saline solution described above plus 10 mM citric acid buffered to pH 5.7 with HCl instead of buffering to a neutral pH with NaOH as done for normal saline). Compounds were tested at various concentration ranges, depending upon potency of compound. After the 2 minute or 30 minute compound pre-treatment, treatment solution was then added to cells by adding a volume of treatment solution equal to the pretreatment solution already on the cells.

The target in assay [3] is T1, hVR1. Description: Calcium uptake assay (FLIPR), inhibition of low pH (proton)-induced calcium influx. The settings on record: agonist protons, low pH solution pH 5.7; cells expressing hVR1. How it is done: as §1, §2
as §3, with “compound). Compound IC50 experiments were run using an agonist concentration at or near the EC50 of the agonist.” for “compound).”, “cells. […]” for “cells.”

Each structure is given as a SMILES string.

T1 sequence (Q8NER1 whole entry): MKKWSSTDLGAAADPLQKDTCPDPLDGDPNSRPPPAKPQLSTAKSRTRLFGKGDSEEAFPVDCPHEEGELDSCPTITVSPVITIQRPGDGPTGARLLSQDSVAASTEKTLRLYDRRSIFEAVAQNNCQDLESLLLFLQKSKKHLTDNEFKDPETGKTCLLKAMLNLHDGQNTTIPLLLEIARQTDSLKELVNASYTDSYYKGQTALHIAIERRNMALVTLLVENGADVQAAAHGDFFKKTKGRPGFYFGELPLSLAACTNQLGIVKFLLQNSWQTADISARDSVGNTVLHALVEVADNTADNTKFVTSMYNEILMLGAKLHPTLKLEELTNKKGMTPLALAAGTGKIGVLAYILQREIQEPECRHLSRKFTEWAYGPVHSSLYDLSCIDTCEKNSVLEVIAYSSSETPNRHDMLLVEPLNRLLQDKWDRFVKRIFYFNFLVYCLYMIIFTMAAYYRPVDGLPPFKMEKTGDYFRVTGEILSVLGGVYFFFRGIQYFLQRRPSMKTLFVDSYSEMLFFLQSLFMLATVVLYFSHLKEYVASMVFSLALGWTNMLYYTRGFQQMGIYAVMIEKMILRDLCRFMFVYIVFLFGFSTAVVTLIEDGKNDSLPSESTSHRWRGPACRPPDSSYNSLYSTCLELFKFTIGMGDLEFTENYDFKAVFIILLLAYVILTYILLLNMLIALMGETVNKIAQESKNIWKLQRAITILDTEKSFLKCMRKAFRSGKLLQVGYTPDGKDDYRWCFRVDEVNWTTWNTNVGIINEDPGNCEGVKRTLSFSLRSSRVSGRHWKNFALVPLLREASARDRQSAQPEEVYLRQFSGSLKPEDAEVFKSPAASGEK

Consider `CC(NC(=O)[C@H]1COc2cc(C(F)(F)F)ccc2O1)c1ccc2[nH]ncc2c1` (stereo partly drawn) [Compound 13, (R)-6-Trifluoromethyl-2,3-dihydro-benzo[1,4]dioxine-2-carboxylic acid [1-(1H-indazol-5-yl)-ethyl]-amide], for which the Kb on hVR1 [1] was 37.4 nM. At hVR1 [2], the IC50 – broadly, the midpoint of a concentration-inhibition curve – stood at 64 nM.

For the compound `CC(C)(C)c1ccc2c(c1)OC(C(=O)Nc1cnc3sc(CO)nc3c1)CO2` (centres unmarked) [Compound 8, 7-tert-Butyl-2,3-dihydro-benzo[1,4]dioxine-2-carboxylic acid (2-hydroxymethyl-thiazolo[5,4-b]pyridin-6-yl)-amide], the Kb at hVR1 [1] is 14.5 nM. For the same compound, the IC50 at hVR1 [3] turned out to be 8 nM.

Turning to `CC(NC(=O)[C@@H]1COc2cc(C(F)(F)F)ccc2O1)c1ccc2[nH]ncc2c1` (stereo partly drawn) [Compound 14, (S)-6-Trifluoromethyl-2,3-dihydro-benzo[1,4]dioxine-2-carboxylic acid [1-(1H-indazol-5-yl)-ethyl]-amide], on hVR1 [2], the 50% inhibitory concentration (IC50) was determined as 820 nM and the inhibition (usually how much of the control response was suppressed) at 1 µM turned out to be 54%.

For `CC(NC(=O)C1CCc2nc(C(C)(C)C(F)(F)F)ccc2C1)c1ccc2[nH]ncc2c1` (centres unmarked) [Compound 10, 2-(2,2,2-Trifluoro-1,1-dimethyl-ethyl)-5,6,7,8-tetrahydro-quinoline-6-carboxylic acid [1-(1H-indazol-5-yl)-ethyl]-amide], the Kb at hVR1 [1] is 4.32 nM. In addition, the IC50 on hVR1 [2] is 8 nM.

As for `O=C(NCc1ccnc2ccccc12)C1=Cc2cc(OC(F)(F)F)ccc2OC1` [Compound 4, 6-Trifluoromethoxy-2H-chromene-3-carboxylic acid (quinolin-4-ylmethyl)-amide], the IC50 on hVR1 [3] stood at 108 nM.

Compound `C[C@@H](NC(=O)[C@H]1COc2cc(C(F)(F)F)ccc2O1)c1ccc2[nH]ncc2c1` [Compound 26, (R)-6-Trifluoromethyl-2,3-dihydro-benzo[1,4]dioxine-2-carboxylic acid [(R)-1-(1H-indazol-5-yl)-ethyl]-amide] gave a Kb on hVR1 [1] of 22.5 nM. Also, the IC50 at hVR1 [2] turned out to be 93 nM.

Regarding `CC1(C(=O)Nc2cnc3sc(CO)nc3c2)CCc2nc(C(C)(C)C(F)(F)F)ccc2C1` (centres unmarked) [Compound 24, 6-Methyl-2-(2,2,2-trifluoro-1,1-dimethyl-ethyl)-5,6,7,8-tetrahydro-quinoline-6-carboxylic acid (2-hydroxymethyl-thiazolo[5,4-b]pyridin-6-yl)-amide], the Kb on hVR1 [1] is 69.2 nM. Further, the IC50 at hVR1 [3] worked out at 121 nM.

With `O=C(Nc1cnc2c(c1)COCC2)[C@H]1COc2cc(C(F)(F)F)ccc2O1` [Compound 17, (R)-6-Trifluoromethyl-2,3-dihydro-benzo[1,4]dioxine-2-carboxylic acid (7,8-dihydro-5H-pyrano[4,3-b]pyridin-3-yl)-amide], at hVR1 [2], the 50% inhibitory concentration (IC50) came to 140 nM.

For the compound `CC(NC(=O)[C@@H]1COc2cc(C(C)(C)C)ccc2O1)c1ccc2[nH]ncc2c1` (single isomer, unassigned) [Compound 6], on hVR1 [2], the half-maximal inhibitory concentration (IC50) was 103 nM.

For the compound `O=C(Nc1cnc2sc(CO)nc2c1)[C@H]1COc2cc(C(F)(F)F)ccc2O1` [Compound 16, (R)-6-Trifluoromethyl-2,3-dihydro-benzo[1,4]dioxine-2-carboxylic acid (2-hydroxymethyl-thiazolo[5,4-b]pyridin-6-yl)-amide], at hVR1 [1], the Kb was 422 nM. On hVR1 [3], the IC50 worked out at 571 nM.

As to `O=C(NCc1ccnc2ccccc12)C1=Cc2cc(Br)ccc2OC1` [Compound 3, 6-Bromo-2H-chromene-3-carboxylic acid (quinolin-4-ylmethyl)-amide], on hVR1 [3], the half-inhibitory concentration (IC50) turned out to be 128 nM.

`C[C@@H](NC(=O)[C@@H]1COc2cc(C(F)(F)F)ccc2O1)c1ccc2[nH]ncc2c1` [Compound 25, (S)-6-Trifluoromethyl-2,3-dihydro-benzo[1,4]dioxine-2-carboxylic acid 1[(R)-1-(1H-indazol-5-yl)-ethyl]-amide] had a Kb on hVR1 [1] of 188 nM. Moreover, at hVR1 [2], the IC50 is 150 nM.

On to `CC(C)(C)c1ccc2c(c1)OCC(C(=O)NCc1ccnc3ccccc13)O2` (centres unmarked) [Compound 1, 6-tert-butyl-N-(quinolin-4-ylmethyl)-2,3-dihydrobenzo[b][1,4]dioxine-2-carboxamide], for which the figures for the IC50 at hVR1 [2] and on hVR1 [3] were 36 nM and 240 nM, respectively.

Regarding `O=C(NCc1ccnc2ccccc12)C1=Cc2cc(Cl)ccc2OC1` [Compound 2, 6-Chloro-2H-chromene-3-carboxylic acid (Quinolin-4-ylmethyl)-amide], the IC50 on hVR1 [3] worked out at 143 nM.

The compound `C[C@@H](NC(=O)[C@H]1CCc2nc(C(C)(C)C(F)(F)F)ccc2C1)c1cnn2c1OCCC2` [Compound 22, (S)—N—((R)-1-(6,7-dihydro-5H-pyrazolo[5,1-b][1,3]oxazin-3-yl)ethyl)-2-(1,1,1-trifluoro-2-methylpropan-2-yl)-5,6,7,8-tetrahydroquinoline-6-carboxamide] gave a Kb on hVR1 [1] of 59.5 nM. In addition, the IC50 on hVR1 [2] is 76 nM.

For `C[C@@H](NC(=O)[C@@H]1CCc2nc(C(C)(C)C(F)(F)F)ccc2C1)c1cnn2c1OCCC2` [Compound 20, (R)-2-(2,2,2-Trifluoro-1,1-dimethyl-ethyl)-5,6,7,8-tetrahydro-quinoline-6-carboxylic acid [(R)-1-(6,7-dihydro-5H-pyrazolo[5,1-b][1,3]oxazin-3-yl)-ethyl]-amide], at hVR1 [2], the IC50 is 310 nM.

For the origin of these results see patent US8163901B2, “Amide derivatives as ion-channel ligands and pharmaceutical compositions and methods of using the same” (Evotec AG, priority 2008, dated 2012).
